Measured values: publication PMC2216842 (The Journal of General Physiology, 1994)
Where two headings read alike, the source gives them in different places.

Assays:
[1] = test system: BTX-modified Na+ channels in GH3 cells; format: cell-based, rat; conditions: for enhancement of the inactivation of BTX-modified Na+ channels: benzocaine derivatives
[2] = test system: unmodified Na+ channels in GH3 cells; test: Whole-cell voltage clamp, tonic and use-dependent block of normal Na+ currents; format: cell-based, rat; conditions: 1 mM; for tonic block of normal Na+ currents: +30 mV test pulse, prepulse -130 mV; for use-dependent block of normal Na+ currents: repetitive +30 mV pulses, 25 ms at 5 Hz
[3] = Solubility in test solution; conditions: external solution, from 500 mM DMSO stock
[4] = test system: BTX-modified Na+ channels in GH3 cells; test: Whole-cell voltage clamp, voltage-ramp protocol; format: cell-based, rat; conditions: for effect of external Na+ ions on binding: 0 vs 130 mM external Na+; for voltage dependence of block / IC50: voltage ramp; for voltage dependence of block: quasi steady state; for change of binding after CT treatment: 0.5 mM CT 5 min; for IC50: no external Na+

Molecule: COC(=O)c1ccc(N)cc1 [methyl 4-amino benzoate]
- enhancement of the inactivation of BTX-modified Na+ channels [1]: acted more or less as benzocaine

Molecule: CCOC(=O)c1ccc(N(C)C)cc1 [N-dimethyl benzocaine, ethyl p-dimethylamino-benzoate]
- enhancement of the inactivation of BTX-modified Na+ channels [1]: failed to enhance the inactivation
- left shift in steady-state inactivation [2]: ~ 10 mV
- tonic block of normal Na+ currents [2]: produces a tonic block
- use-dependent block of normal Na+ currents [2]: elicits additional use-dependent block
- solubility [3]: could not reliably dissolve N-dimethyl benzocaine at 3 mM even after heating
- effect of external Na+ ions on binding [4]: no effect
- voltage dependence of block [4]: enhanced by depolarization

Molecule: CCOC(=O)c1cccc(N)c1 [tricaine]
- enhancement of the inactivation of BTX-modified Na+ channels [1]: acted more or less as benzocaine

Molecule: COC(=O)[C@H]1[C@@H](OC(=O)c2ccccc2)C[C@@H]2CC[C@H]1N2C [cocaine, (-)-cocaine]
- change of binding after CT treatment ([4]; from 0 to +50 mV, 0.1 or 0.3 mM): small reduction
- change of binding after CT treatment ([4]; from -50 mV to -30 mV, 0.1 or 0.3 mM): slightly enhanced
- voltage dependence of block [4]: significantly stronger at +50 mV than at -50 mV

Molecule: CCOC(=O)c1cccc(O)c1 [ethyl 3-hydroxy benzoate]
- enhancement of the inactivation of BTX-modified Na+ channels [1]: acted more or less as benzocaine

Molecule: CCOC(=O)c1ccc(N)cc1 [benzocaine, Benzocaine]
- IC50 ([1]; read-out: concentration that inhibits 50% of BTX-modified Na+ currents (IC50), at -70 mV, GH3 cells): 200 µM
- left shift in steady-state inactivation [2]: about 20 mV
- tonic block of normal Na+ currents [2]: produces a tonic block
- use-dependent block of normal Na+ currents [2]: fails to elicit additional use-dependent block
- solubility [3]: poor solubility of benzocaine at concentrations higher than 3 mM
- effect of external Na+ ions on binding [4]: do not reduce benzocaine binding
- change of binding after CT treatment ([4]; measured from -75 mV to +50 mV, 1 and 3 mM): greatly reduced
- shift of V0.5 toward the depolarizing direction ([4]; 1 mM benzocaine on BTX-modified channels, 130 mM external Na+): about 20 mV
- IC50 ([4]; at +50 mV): ~1200 µM
- IC50 ([4]; at -50 mV): 300 µM
- voltage dependence of block [4]: greater at the resting membrane potential (-50 to -90 mV) than at positive potentials (0 to +50 mV)

Molecule: CCOC(=O)c1ccc(O)cc1 [ethyl 4-hydroxy benzoate]
- enhancement of the inactivation of BTX-modified Na+ channels [1]: acted more or less as benzocaine

Molecule: batrachotoxin [BTX]
- activation threshold, more negative than that of normal Na+ currents ([4]; BTX-modified channels, threshold near -90 mV): ~ 50 mV
